Results on four molecules are retold here after patent EP0403048A2, “Medicated compositions containing sucralfate and processes for their production” (WARNER-LAMBERT COMPANY, priority 1989, dated 1990).

Series [1] is described as follows: in vitro comparative gelling experiment in 0.1N hydrochloric acid. The format is physicochemical.
Series [2] concerns Escherichia coli, A.T.T.C. accession number 8739. The series can be described thus: in-vitro antimicrobial activity, zone of inhibition on agar plates. The format is cell-based. The note with it: agar plate well, incubated at 37° C. for 24 hours.

Where two headings read alike, the source gives them in different places.

For `O=C(O)c1ccccc1` [Example 10, Benzoic Acid], in series [1], the gel formation result was “did not gel”.
On to `Cl` [Example 12, 0.1N Hydrochloric Acid], for which the gel formation result in series [1] is recorded as “gelled”.
For the molecule Sucralfate [Example 1], in series [1] (15ml of 0.1N hydrochloric acid), the “supernatant left after gelling” value is recorded as “essentially clear”. The “gelled in (time to gel)” value in series [1] (composition in 15ml of 0.1N hydrochloric acid, Vortex-Genie speed 3 for 10-15 seconds) is reported as “about 10 seconds”.
Consider Sucralfate [Example 7], for which the gel formation result in series [1] (sample preparation for the antimicrobial test: 15ml of 0.1N hydrochloric acid in sterile test tube) is “gelled”. Moreover, in series [2], the “ZONE OF INHIBITION(CM)” value is given as “Negative”.
